US9115122B2, “Non-ATP dependent inhibitors of extracellular signal-regulated kinase (ERK)” (UNIVERSITY OF MARYLAND, BALTIMORE, priority 2012, dated 2015)

How the values were obtained:
Assay in all cases: Cell proliferation WST-1 assay, single dose (Example 4)
Assay type in all cases: cell-based
Settings in all cases: 100 μM, 48 hours
[1] = tested on: A375 melanoma cells
Description: (§1) In addition, compounds were tested in RPMI-7951 cells, which also contain mutated BRaf and are resistant to BRaf inhibitors due to the overexpression of MAP3K8 (the gene encoding COT/Tp12) that provides an alternative mechanism to indirectly or directly activate ERK proteins. […] For comparison, HeLa cervical carcinoma and Jurkat T-cell leukemia cells, which are p53 defective cancer cell lines but contain no known activating mutations in the ERK pathway, were studied. […] Cell proliferation was evaluated by water soluble tetrazolium-1 (WST-1) assay as previously described. Briefly, cells (˜5000/well) were seeded in 96 well plates, allowed to recover for 16-20 hours, and then treated with the indicated test compound for 48 hours. After incubation, WST-1 reagent was added and absorbance was read at 450 nm with background subtraction taken at 650 nm. Values were normalized to the control (DMSO only treated) cells.

[2] = tested on: HL-60 leukemic cells
Description: as §1

[3] = tested on: HeLa cervical carcinoma cells
Description: as §1

[4] = tested on: Jurkat T-cell leukemia cells
Description: as §1

[5] = tested on: RPMI-7951 melanoma cells
Description: as §1

[6] = tested on: SK-MEL-28 melanoma cells
Description: as §1

With `CCOc1ccc(/C=C2\SC(=O)N(CCNC(=O)OCC3c4ccccc4-c4ccccc43)C2=O)cc1` [Compound 26e, (Z)-(9H-fluoren-9-yl)methyl (2-(5-(4-ethoxybenzylidene)-2,4-dioxothiazolidin-3-yl)ethyl)carbamate] the “Cell Viability (% of Vehicle) A375” value [1] was 43 ± 3 % of Vehicle, the “Cell Viability (% of Vehicle) HL-60” value [2] was 103 ± 13 % of Vehicle and the “Cell Viability (% of Vehicle) HeLa” value [3] was 85 ± 4 % of Vehicle. The “Cell Viability (% of Vehicle) Jurkat” value [4] was 139 ± 14 % of Vehicle, the “Cell Viability (% of Vehicle) RPMI-7951” value [5] was 27 ± 3 % of Vehicle and the “Cell Viability (% of Vehicle) SK-MEL-28” value [6] was 29 ± 7 % of Vehicle.

For `CCOc1ccc(/C=C2\SC(=O)N(CCNS(C)(=O)=O)C2=O)cc1` [Compound 27a, (Z)—N-(2-(5-(4-ethoxybenzylidene)-2,4-dioxothiazolidin-3-yl)ethyl)methanesulfonamide], the “Cell Viability (% of Vehicle) A375” value [1] was 94 ± 2 % of Vehicle, the “Cell Viability (% of Vehicle) HL-60” value [2] was 82 ± 44 % of Vehicle and the “Cell Viability (% of Vehicle) HeLa” value [3] was 82 ± 1 % of Vehicle. The “Cell Viability (% of Vehicle) Jurkat” value [4] was 85 ± 3 % of Vehicle, the “Cell Viability (% of Vehicle) RPMI-7951” value [5] was 68 ± 3 % of Vehicle and the “Cell Viability (% of Vehicle) SK-MEL-28” value [6] was 87 ± 2 % of Vehicle.

With `CCOc1ccc(/C=C2\SC(=O)N(CCNS(=O)(=O)c3ccc(C#N)cc3)C2=O)cc1` [Compound 27b, (Z)-4-cyano-N-(2-(5-(4-ethoxybenzylidene)-2,4-dioxothiazolidin-3-yl)ethyl)benzenesulfonamide] the “Cell Viability (% of Vehicle) A375” value [1] was 109 ± 6 % of Vehicle, the “Cell Viability (% of Vehicle) HL-60” value [2] was 101 ± 52 % of Vehicle and the “Cell Viability (% of Vehicle) HeLa” value [3] was 90 ± 4 % of Vehicle. For the same compound, the “Cell Viability (% of Vehicle) Jurkat” value [4] was 103 ± 3 % of Vehicle, the “Cell Viability (% of Vehicle) RPMI-7951” value [5] was 99 ± 4 % of Vehicle and the “Cell Viability (% of Vehicle) SK-MEL-28” value [6] was 95 ± 3 % of Vehicle.

In the case of `CCOc1ccc(/C=C2\SC(=O)N(CCNS(=O)(=O)c3cn(C)cn3)C2=O)cc1` [Compound 27c, (Z)—N-(2-(5-(4-ethoxybenzylidene)-2,4-dioxothiazolidin-3-yl)ethyl)-1-methyl-1H-imidazole-4-sulfonamide], the “Cell Viability (% of Vehicle) A375” value [1] is reported as 107 ± 2 % of Vehicle, the “Cell Viability (% of Vehicle) HL-60” value [2] is reported as 51 ± 31 % of Vehicle and the “Cell Viability (% of Vehicle) HeLa” value [3] is reported as 91 ± 5 % of Vehicle. The “Cell Viability (% of Vehicle) Jurkat” value [4] was 97 ± 4 % of Vehicle, the “Cell Viability (% of Vehicle) RPMI-7951” value [5] was 118 ± 6 % of Vehicle and the “Cell Viability (% of Vehicle) SK-MEL-28” value [6] was 92 ± 5 % of Vehicle.

For `CCCN1C(=O)S/C(=C\c2ccc(OCC)cc2)C1=O` [Compound 28d, (Z)-5-(4-ethoxybenzylidene)-3-propylthiazolidine-2,4-dione], the “Cell Viability (% of Vehicle) A375” value [1] was 119 ± 5 % of Vehicle, the “Cell Viability (% of Vehicle) HL-60” value [2] was 80 ± 26 % of Vehicle and the “Cell Viability (% of Vehicle) HeLa” value [3] was 96 ± 4 % of Vehicle. The “Cell Viability (% of Vehicle) Jurkat” value [4] was 101 ± 5 % of Vehicle, the “Cell Viability (% of Vehicle) RPMI-7951” value [5] was 116 ± 10 % of Vehicle and the “Cell Viability (% of Vehicle) SK-MEL-28” value [6] was 101 ± 3 % of Vehicle.

In the case of `CCOc1ccc(/C=C2\SC(=O)N(CCO)C2=O)cc1` [Compound 28e, (Z)-5-(4-ethoxybenzylidene)-3-(2-hydroxyethyl)thiazolidine-2,4-dione], the “Cell Viability (% of Vehicle) A375” value [1] is reported as 116 ± 4 % of Vehicle, the “Cell Viability (% of Vehicle) HL-60” value [2] is reported as 91 ± 19 % of Vehicle and the “Cell Viability (% of Vehicle) HeLa” value [3] is reported as 91 ± 2 % of Vehicle. The “Cell Viability (% of Vehicle) Jurkat” value [4] was 101 ± 4 % of Vehicle, the “Cell Viability (% of Vehicle) RPMI-7951” value [5] was 137 ± 8 % of Vehicle and the “Cell Viability (% of Vehicle) SK-MEL-28” value [6] was 91 ± 1 % of Vehicle.

With `CCOc1ccc(/C=C2\SC(=O)N(CCCl)C2=O)cc1` [Compound 28f, (Z)-3-(2-chloroethyl)-5-(4-ethoxybenzylidene)thiazolidine-2,4-dione] the “Cell Viability (% of Vehicle) A375” value [1] was 113 ± 9 % of Vehicle, the “Cell Viability (% of Vehicle) HL-60” value [2] was 99 ± 14 % of Vehicle and the “Cell Viability (% of Vehicle) HeLa” value [3] was 87 ± 4 % of Vehicle. For the same compound, the “Cell Viability (% of Vehicle) Jurkat” value [4] was 99 ± 5 % of Vehicle, the “Cell Viability (% of Vehicle) RPMI-7951” value [5] was 128 ± 3 % of Vehicle and the “Cell Viability (% of Vehicle) SK-MEL-28” value [6] was 97 ± 3 % of Vehicle.

With `CCOc1ccc(/C=C2\SC(=O)N(CC(=O)OC(C)(C)C)C2=O)cc1` [Compound 28g, (Z)-tert-butyl 2-(5-(4-ethoxybenzylidene)-2,4-dioxothiazolidin-3-yl)acetate] the “Cell Viability (% of Vehicle) A375” value [1] was 117 ± 7 % of Vehicle, the “Cell Viability (% of Vehicle) HL-60” value [2] was 95 ± 18 % of Vehicle and the “Cell Viability (% of Vehicle) HeLa” value [3] was 88 ± 7 % of Vehicle. For the same compound, the “Cell Viability (% of Vehicle) Jurkat” value [4] was 108 ± 3 % of Vehicle, the “Cell Viability (% of Vehicle) RPMI-7951” value [5] was 110 ± 3 % of Vehicle and the “Cell Viability (% of Vehicle) SK-MEL-28” value [6] was 101 ± 2 % of Vehicle.

For `CCOc1ccc(/C=C2\SC(=O)N(CC(=O)O)C2=O)cc1` [Compound 28h, (Z)-2-(5-(4-ethoxybenzylidene)-2,4-dioxothiazolidin-3-yl)acetic acid], the “Cell Viability (% of Vehicle) A375” value [1] was 122 ± 6 % of Vehicle, the “Cell Viability (% of Vehicle) HL-60” value [2] was 97 ± 27 % of Vehicle and the “Cell Viability (% of Vehicle) HeLa” value [3] was 104 ± 3 % of Vehicle. The “Cell Viability (% of Vehicle) Jurkat” value [4] was 108 ± 3 % of Vehicle, the “Cell Viability (% of Vehicle) RPMI-7951” value [5] was 133 ± 9 % of Vehicle and the “Cell Viability (% of Vehicle) SK-MEL-28” value [6] was 106 ± 1 % of Vehicle.

In the case of `CCOc1ccc(/C=C2\SC(=O)N(Cc3ccccc3)C2=O)cc1` [Compound 28i, (Z)-3-benzyl-5-(4-ethoxybenzylidene)thiazolidine-2,4-dione], the “Cell Viability (% of Vehicle) A375” value [1] is reported as 110 ± 4 % of Vehicle, the “Cell Viability (% of Vehicle) HL-60” value [2] is reported as 65 ± 1 % of Vehicle and the “Cell Viability (% of Vehicle) HeLa” value [3] is reported as 95 ± 4 % of Vehicle. For the same compound, the “Cell Viability (% of Vehicle) Jurkat” value [4] was 105 ± 4 % of Vehicle, the “Cell Viability (% of Vehicle) RPMI-7951” value [5] was 114 ± 20 % of Vehicle and the “Cell Viability (% of Vehicle) SK-MEL-28” value [6] was 90 ± 3 % of Vehicle.

For `CCOc1ccc(/C=C2\SC(=O)N(Cc3ccccn3)C2=O)cc1` [Compound 28j, (Z)-5-(4-ethoxybenzylidene)-3-(pyridin-2-ylmethyl)thiazolidine-2,4-dione], the “Cell Viability (% of Vehicle) A375” value [1] was 124 ± 6 % of Vehicle, the “Cell Viability (% of Vehicle) HL-60” value [2] was 89 ± 31 % of Vehicle and the “Cell Viability (% of Vehicle) HeLa” value [3] was 89 ± 5 % of Vehicle. The “Cell Viability (% of Vehicle) Jurkat” value [4] was 101 ± 7 % of Vehicle, the “Cell Viability (% of Vehicle) RPMI-7951” value [5] was 114 ± 5 % of Vehicle and the “Cell Viability (% of Vehicle) SK-MEL-28” value [6] was 95 ± 3 % of Vehicle.

`CCOc1ccc(/C=C2\SC(=O)N(Cc3cccnc3)C2=O)cc1` [Compound 28k, (Z)-5-(4-ethoxybenzylidene)-3-(pyridin-3-ylmethyl)thiazolidine-2,4-dione] was tested, and the “Cell Viability (% of Vehicle) A375” value [1] was 105 ± 4 % of Vehicle, the “Cell Viability (% of Vehicle) HL-60” value [2] was 65 ± 12 % of Vehicle and the “Cell Viability (% of Vehicle) HeLa” value [3] was 80 ± 2 % of Vehicle. The “Cell Viability (% of Vehicle) Jurkat” value [4] was 98 ± 2 % of Vehicle, the “Cell Viability (% of Vehicle) RPMI-7951” value [5] was 102 ± 2 % of Vehicle and the “Cell Viability (% of Vehicle) SK-MEL-28” value [6] was 79 ± 4 % of Vehicle.
